According to paper PMC11191095, “QSAR Reveals Decreased Lipophilicity of Polar Residues Determines the Selectivity of Antimicrobial Peptide Activity” (ACS Omega, 2024):
Where a SMILES comes first, the peptide text is derived from it.

Key:
Test in all cases: microbe, parasite or virus in culture
[1] = system: E. coli LEC001; type: cell-based, Escherichia coli; conditions: E. coli LEC001 (R); shown in µM
Summary of the method: (§1)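 Peptides 128→2 μg/mL, 2-fold series; inoculum ~5 × 10^5 CFU/mL from overnight culture (OD600 0.01, mixed 1:1). MHB non-cation-adjusted for bacteria, RPMI 1640 + 2% glucose for fungi. 37 °C, 20 h, OD600. MIC50/MIC90 at 50%/90% inhibition; n ≥ 3.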

[2] = system: E. coli NCTC 12923; type: cell-based, Escherichia coli; conditions: E. coli NCTC 12923 (S); shown in µM
Summary of the method: as §1

[3] = system: P. aeruginosa NCTC 13437; type: cell-based, Pseudomonas aeruginosa; conditions: P. aeruginosa NCTC 13437 (R)
Method: (§2) Antimicrobial activity was evaluated against a panel of 18 pathogens consisting of eight Gram-negative strains (E. coli NCTC 12923, E. coli LEC001, Pseudomonas aeruginosa PAO1, P. aeruginosa NCTC 13437, Acinetobacter baumannii ATCC 17978, A. baumannii AYE, Klebsiella pneumoniae M6, K. pneumoniae NCTC 13368), four Gram-positive strains (Staphylococcus aureus ATCC 9144, S. aureus NCTC 13616, S. aureus USA300, S. aureus 1199B) and six fungi (Candida auris TDG 1912, C. albicans NCPF 8018, C. krusei NCPF 3876, C. tropicalis NCPF 8760, and C. parapsilosis NCPF 3209). Pathogens were grown in noncation adjusted Mueller Hinton broth (MHB, for bacteria) or Roswell Park Memorial Institute (RPMI 1640) + 2% glucose (for fungi) at 37 °C with 180 rpm shaking and maintained on solid media (tryptic soy agar for bacteria and Sabouraud dextrose agar for fungi). For an antibiogram, see Suppl.
(§3) The 46 peptides were serially diluted (128 to 2 μg/mL) in media down polypropylene 96-well plates. Bacteria or fungi, diluted from an overnight culture to an OD600 of 0.01, were added to the serially diluted peptides at a 1:1 ratio resulting in a starting cell density of ∼5 × 10^5 CFU/mL. Plates were incubated at 37 °C for 20 h, and the optical density was determined spectrophotometrically at 600 nm. Minimum inhibition concentrations (MICs) were determined from a minimum of three biological repeats and are reported in μg/mL as well as μM. […] The MIC50 or MIC90 is defined as the lowest peptide concentration that results in 50% or 90% growth inhibition over a 20 h treatment period, respectively.

[4] = system: P. aeruginosa PAO1; type: cell-based, Pseudomonas aeruginosa; conditions: P. aeruginosa PAO1 (S); shown in µM
Method: as §2, §3

[5] = system: A. baumannii ATCC 17978; type: cell-based, Acinetobacter baumannii; conditions: A. baumannii ATCC 17978 (S); shown in µM
Summary of the method: as §1

[6] = system: A. baumannii AYE; type: cell-based, Acinetobacter baumannii; conditions: A. baumannii AYE (R); shown in µM
Summary of the method: as §1

[7] = system: K. pneumoniae M6; type: cell-based, Klebsiella pneumoniae; conditions: K. pneumoniae M6 (S)
Method: as §2, §3

[8] = system: K. pneumoniae NCTC 13368; type: cell-based, Klebsiella pneumoniae; conditions: K. pneumoniae NCTC 13368 (R)
Method: as §2, §3

[9] = system: S. aureus (MRSA) 1199B; type: cell-based, Staphylococcus aureus; conditions: S. aureus (MRSA) 1199B (R)
Summary of the method: as §1

[10] = system: S. aureus (MRSA) NCTC 13616; type: cell-based, Staphylococcus aureus; conditions: S. aureus (MRSA) NCTC 13616 (R)
Summary of the method: as §1

[11] = system: S. aureus (MRSA) USA300; type: cell-based, Staphylococcus aureus; conditions: S. aureus (MRSA) USA300 (R)
Summary of the method: as §1

[12] = system: S. aureus (MSSA) ATCC 9144; type: cell-based, Staphylococcus aureus; conditions: S. aureus (MSSA) ATCC 9144 (S); shown in µM
Summary of the method: as §1

[13] = system: C. auris TDG 1912; type: cell-based, Candida auris; conditions: C. auris TDG 1912
Summary of the method: as §1

[14] = system: C. albicans NCPF 3281; type: cell-based; conditions: C. albicans NCPF 3281
Summary of the method: as §1

[15] = system: C. glabrata NCPF 8018; type: cell-based; conditions: C. glabrata NCPF 8018
Summary of the method: as §1

[16] = system: C. krusei NCPF 3876; type: cell-based; conditions: C. krusei NCPF 3876
Summary of the method: as §1

[17] = system: C. parapsilosis NCPF 3209; type: cell-based; conditions: C. parapsilosis NCPF 3209
Summary of the method: as §1

[18] = system: C. tropicalis NCPF 8760; type: cell-based; conditions: C. tropicalis NCPF 8760
Summary of the method: as §1

[19] = MHB, 37 °C, 20 h, OD600, min. three biological repeats
[20] = 50% growth inhibition, RPMI 1640 + 2% glucose, 37 °C, 20 h, OD600
[21] = 90% growth inhibition, RPMI 1640 + 2% glucose, 37 °C, 20 h, OD600
[22] = 50% growth inhibition, RPMI 1640 + 2% glucose, 37 °C, 20 h
[23] = 90% growth inhibition, RPMI 1640 + 2% glucose, 37 °C, 20 h

In the case of `CC(C)C[C@H](NC(=O)[C@H](CCCCN)NC(=O)[C@H](CCCCN)NC(=O)[C@H](C)NC(=O)[C@H](CC(C)C)NC(=O)[C@H](CCCCN)NC(=O)[C@H](CO)NC(=O)[C@H](CCCCN)NC(=O)[C@H](Cc1c[nH]c2ccccc12)NC(=O)[C@H](C)NC(=O)[C@H](CCCCN)NC(=O)[C@H](CCCCN)NC(=O)[C@H](CC(C)C)NC(=O)[C@H](Cc1ccccc1)NC(=O)[C@H](CO)NC(=O)CN)C(N)=O` [PS-PB-16a] (H-GSFLKKAWKSKLAKKL-NH2), the “Modal MIC” value [1] was 33.9 µM, the “Modal MIC” value [2] was 8.5 µM and the “Modal MIC” value ([3]; shown in µM) was 67.8 µM. For the same compound, the “Modal MIC” value [4] was 33.9 µM, the “Modal MIC” value [5] was 8.5 µM and the “Modal MIC” value [6] was 17 µM. The “Modal MIC” value [7, 19] was greater than 128 mg/L, the “Modal MIC” value ([7]; shown in µM) was greater than 67.8 µM and the “Modal MIC” value [8, 19] was greater than 128 mg/L. For the same compound, the “Modal MIC” value ([8]; shown in µM) was greater than 67.8 µM, the “Modal MIC” value [9, 19] was greater than 128 mg/L and the “Modal MIC” value ([9]; shown in µM) was greater than 67.8 µM. For the same compound, the “Modal MIC” value [10, 19] was greater than 128 mg/L, the “Modal MIC” value ([10]; shown in µM) was greater than 67.8 µM and the “Modal MIC” value [11, 19] was greater than 128 mg/L. For the same compound, the “Modal MIC” value ([11]; shown in µM) was greater than 67.8 µM, the “Modal MIC” value [12] was 17 µM and the “Modal MIC50” value [13, 20] was greater than 128 mg/L. For the same compound, the “Modal MIC90” value [13, 21] was greater than 128 mg/L, the “Modal MIC50” value ([13]; shown in µM) was greater than 67.8 µM and the “Modal MIC90” value ([13]; shown in µM) was greater than 67.8 µM. For the same compound, the “Modal MIC50” value [14, 22] was greater than 128 mg/L, the “Modal MIC90” value [14, 23] was greater than 128 mg/L and the “Modal MIC50” value ([14]; shown in µM) was greater than 67.8 µM. For the same compound, the “Modal MIC90” value ([14]; shown in µM) was greater than 67.8 µM, the “Modal MIC50” value [15, 22] was greater than 128 mg/L and the “Modal MIC90” value [15, 23] was greater than 128 mg/L. The “Modal MIC50” value ([15]; shown in µM) was greater than 67.8 µM, the “Modal MIC90” value ([15]; shown in µM) was greater than 67.8 µM and the “Modal MIC50” value [16, 22] was greater than 128 mg/L. The “Modal MIC90” value [16, 23] was greater than 128 mg/L, the “Modal MIC50” value ([16]; shown in µM) was greater than 67.8 µM and the “Modal MIC90” value ([16]; shown in µM) was greater than 67.8 µM. The “Modal MIC50” value [17, 22] was greater than 128 mg/L, the “Modal MIC90” value [17, 23] was greater than 128 mg/L and the “Modal MIC50” value ([17]; shown in µM) was greater than 67.8 µM. The “Modal MIC90” value ([17]; shown in µM) was greater than 67.8 µM, the “Modal MIC50” value [18, 22] was greater than 128 mg/L and the “Modal MIC90” value [18, 23] was greater than 128 mg/L. The “Modal MIC50” value ([18]; shown in µM) was greater than 67.8 µM and the “Modal MIC90” value ([18]; shown in µM) was greater than 67.8 µM.
With `CC(C)C[C@H](NC(=O)[C@H](CCCCN)NC(=O)[C@H](CO)NC(=O)[C@H](CCCCN)NC(=O)[C@H](Cc1c[nH]c2ccccc12)NC(=O)[C@H](C)NC(=O)[C@H](CCCCN)NC(=O)[C@H](CCCCN)NC(=O)[C@H](CC(C)C)NC(=O)[C@H](Cc1ccccc1)NC(=O)[C@H](CO)NC(=O)CN)C(=O)N[C@@H](C)C(=O)N[C@@H](CCCCN)C(=O)N[C@@H](CCCCN)C(=O)N[C@@H](CC(C)C)C(=O)N[C@@H](CCCNC(=N)N)C(=O)N[C@@H](C)C(=O)N[C@@H](CCCCN)C(=O)NCC(N)=O` [PS-PB-20a] (H-GSFLKKAWKSKLAKKLRAKG-NH2) the “Modal MIC” value [1] was 27.8 µM, the “Modal MIC” value [2] was 13.9 µM and the “Modal MIC” value [3, 19] was greater than 128 mg/L. The “Modal MIC” value ([3]; shown in µM) was greater than 55.7 µM, the “Modal MIC” value [4] was 55.7 µM and the “Modal MIC” value [5] was 3.5 µM. For the same compound, the “Modal MIC” value [6] was 13.9 µM, the “Modal MIC” value [7, 19] was greater than 128 mg/L and the “Modal MIC” value ([7]; shown in µM) was greater than 55.7 µM. For the same compound, the “Modal MIC” value [8, 19] was greater than 128 mg/L, the “Modal MIC” value ([8]; shown in µM) was greater than 55.7 µM and the “Modal MIC” value [9, 19] was greater than 128 mg/L. For the same compound, the “Modal MIC” value ([9]; shown in µM) was greater than 55.7 µM, the “Modal MIC” value [10, 19] was greater than 128 mg/L and the “Modal MIC” value ([10]; shown in µM) was greater than 55.7 µM. The “Modal MIC” value [11, 19] was greater than 128 mg/L, the “Modal MIC” value ([11]; shown in µM) was greater than 55.7 µM and the “Modal MIC” value [12] was 3.5 µM. The “Modal MIC50” value [13, 20] was greater than 128 mg/L, the “Modal MIC90” value [13, 21] was greater than 128 mg/L and the “Modal MIC50” value ([13]; shown in µM) was greater than 55.7 µM. The “Modal MIC90” value ([13]; shown in µM) was greater than 55.7 µM, the “Modal MIC50” value [14, 22] was greater than 128 mg/L and the “Modal MIC90” value [14, 23] was greater than 128 mg/L. For the same compound, the “Modal MIC50” value ([14]; shown in µM) was greater than 55.7 µM, the “Modal MIC90” value ([14]; shown in µM) was greater than 55.7 µM and the “Modal MIC50” value [15, 22] was greater than 128 mg/L. For the same compound, the “Modal MIC90” value [15, 23] was greater than 128 mg/L, the “Modal MIC50” value ([15]; shown in µM) was greater than 55.7 µM and the “Modal MIC90” value ([15]; shown in µM) was greater than 55.7 µM. For the same compound, the “Modal MIC90” value [16, 23] was greater than 128 mg/L, the “Modal MIC50” value ([16]; shown in µM) was 55.7 µM and the “Modal MIC90” value ([16]; shown in µM) was greater than 55.7 µM. For the same compound, the “Modal MIC50” value [17, 22] was greater than 128 mg/L, the “Modal MIC90” value [17, 23] was greater than 128 mg/L and the “Modal MIC50” value ([17]; shown in µM) was greater than 55.7 µM. The “Modal MIC90” value ([17]; shown in µM) was greater than 55.7 µM, the “Modal MIC50” value ([18]; shown in µM) was 27.8 µM and the “Modal MIC90” value ([18]; shown in µM) was 27.8 µM.
